# Results as given in patent publication US20250333397A1 (REMIX THERAPEUTICS INC., priority 2021, published 2025).
# Read-outs that look alike come from different tables or passages of the source.
# What was measured:
# Format in all cases: cell-based, human
# Target C mRNA = assay: RT-qPCR splicing assay panel, Target C canonical junction (CJ) mRNA; conditions: canonical junction (CJ) mRNA, RT-qPCR panel, Table 4A, read-out: Target C, decrease in CJ mRNA levels, IC50
# In short: (§1)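 Junction-specific RT-qPCR read the canonical exon-exon junction and the compound-induced alternative-exon junction, normalized to GAPDH, GUSB or PPIA and then to DMSO (2^(-ΔΔCt)). Input was lysate from A673 or K562 cells exposed for 24 h to compound up to 10 uM.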
# SMN2 mRNA = assay: RT-qPCR splicing assay panel, SMN2 canonical junction (CJ) mRNA; conditions: canonical junction (CJ) mRNA, RT-qPCR panel, Table 4A, read-out: SMN2, decrease in CJ mRNA levels, IC50
# In short: as §1
# MYB mRNA = assay: RT-qPCR splicing assay, MYB canonical (CJ) and alternative (AJ) junction mRNA; conditions: for AC50: read-out: MYB AJ (AC50, increase in AJ mRNA)
# In short: as §1
# HTT mRNA = assay: RT-qPCR splicing assay, HTT canonical (CJ) and alternative (AJ) junction mRNA; conditions: for AC50: read-out: HTT AJ (AC50, increase in AJ mRNA)
# In short: as §1
# [1] = Table 3A, A673 or K562 cells, 24 h treatment
# [2] = Homo sapiens, 24 h, Table 3A, A673 or K562 cells, 24 h treatment
# [3] = Homo sapiens, 24 h, Table 3A, A673 or K562 cells, 24 h treatment, read-out: MYB CJ (IC50, decrease in CJ mRNA)
# [4] = Homo sapiens, canonical junction (CJ) mRNA, RT-qPCR panel, Table 4A, read-out: MYB, decrease in CJ mRNA levels, IC50
# [5] = Homo sapiens, 24 h, Table 3A, A673 or K562 cells, 24 h treatment, read-out: HTT CJ (IC50, decrease in CJ mRNA)
# [6] = Homo sapiens, canonical junction (CJ) mRNA, RT-qPCR panel, Table 4A, read-out: HTT, decrease in CJ mRNA levels, IC50
Compound,IC50 (Target C mRNA),IC50 (SMN2 mRNA),"IC50 (MYB mRNA; Table 3A, A673 or K562 cells, 24 h treatment, read-out: MYB CJ (IC50, decrease in CJ mRNA))","IC50 (MYB mRNA; canonical junction (CJ) mRNA, RT-qPCR panel, Table 4A, read-out: MYB, decrease in CJ mRNA levels, IC50)","IC50 (HTT mRNA; Table 3A, A673 or K562 cells, 24 h treatment, read-out: HTT CJ (IC50, decrease in CJ mRNA))","IC50 (HTT mRNA; canonical junction (CJ) mRNA, RT-qPCR panel, Table 4A, read-out: HTT, decrease in CJ mRNA levels, IC50)",IC50 (Target C mRNA; Homo sapiens),IC50 (SMN2 mRNA; Homo sapiens),IC50 (MYB mRNA; [3]),IC50 (MYB mRNA; [4]),IC50 (HTT mRNA; [5]),IC50 (HTT mRNA; [6]),AC50 (MYB mRNA; [1]),AC50 (HTT mRNA; [1]),AC50 (MYB mRNA; [2]),AC50 (HTT mRNA; [2])
Cc1nnc(-c2ccc(-c3ccc(N4CC[C@H](NCC5CC5)C4)nn3)c(O)c2)s1 [Compound 414],,,,,,,100 to 1000 nM,< 100 nM,100 to 1000 nM,100 to 1000 nM,< 100 nM,< 100 nM,,,100 to 1000 nM,100 to 1000 nM
COc1cc(-c2cc(O)c(-c3ccc(N4CCC(NCC5CC5)C4)nn3)cc2F)ncn1 (stereo not drawn) [Compound 417],,,,,,,> 10000 nM,1000 to 10000 nM,> 10000 nM,> 10000 nM,1000 to 10000 nM,1000 to 10000 nM,,,1000 to 10000 nM,1000 to 10000 nM
"Oc1cc(-c2ccc(-c3ccc(N4CC[C@H](NC5CCC5)C4)nn3)c(O)c2)cnn1 [Compound 420, 5-(4-{6-[(3S)-3-(cyclobutylamino)pyrrolidin-1-yl]pyridazin-3-yl}-3-hydroxyphenyl)pyridazin-3-ol]",,,,,,,1000 to 10000 nM,100 to 1000 nM,1000 to 10000 nM,1000 to 10000 nM,100 to 1000 nM,100 to 1000 nM,,,> 10000 nM,1000 to 10000 nM
COc1nc(-c2cnc(N3CCC(NC4CCC4)C3)nn2)ccc1-c1cnc(C)s1 (stereo not drawn) [Compound 421],,,,,,,100 to 1000 nM,100 to 1000 nM,100 to 1000 nM,100 to 1000 nM,100 to 1000 nM,100 to 1000 nM,,,100 to 1000 nM,100 to 1000 nM
COc1nc(-c2cnc(N3CCC(NC(C)(C)C)C3)nn2)ccc1-c1cnc(C)s1 (stereo not drawn) [Compound 422],,,,,,,100 to 1000 nM,< 100 nM,100 to 1000 nM,100 to 1000 nM,< 100 nM,< 100 nM,,,100 to 1000 nM,< 100 nM
COc1cc(-c2ccc(-c3cc(C#N)c(OC4CC(C)(C)NC(C)(C)C4)nn3)c(O)c2)cnn1 [Compound 424],,,,,,,1000 to 10000 nM,100 to 1000 nM,1000 to 10000 nM,1000 to 10000 nM,100 to 1000 nM,100 to 1000 nM,,,1000 to 10000 nM,100 to 1000 nM
COc1cc(-c2ccc(-c3cc(C#N)c(OC4CC(C)(C)NC(C)(C)C4)nn3)c(O)c2)ncn1 [Compound 425],,,,,,,1000 to 10000 nM,100 to 1000 nM,1000 to 10000 nM,1000 to 10000 nM,100 to 1000 nM,100 to 1000 nM,,,1000 to 10000 nM,1000 to 10000 nM
Cc1nc(C#N)c(-c2cc(O)c(-c3ccc(N4CC[C@@H](NC5CCC5)C4)nn3)cc2F)s1 [Compound 428],,,,,,,100 to 1000 nM,< 100 nM,100 to 1000 nM,100 to 1000 nM,100 to 1000 nM,100 to 1000 nM,,,100 to 1000 nM,100 to 1000 nM
Cc1nc(C#N)c(-c2cc(O)c(-c3ccc(N4CC[C@H](NC5CCC5)C4)nn3)cc2F)s1 [Compound 429],,,,,,,100 to 1000 nM,100 to 1000 nM,1000 to 10000 nM,1000 to 10000 nM,100 to 1000 nM,100 to 1000 nM,,,1000 to 10000 nM,100 to 1000 nM
COCCc1cc(-c2ccc(-c3ccc(N4CCC(NC5CCC5)C4)nn3)c(O)c2)cnn1 (stereo not drawn) [Compound 430],,,,,,,> 10000 nM,> 10000 nM,> 10000 nM,> 10000 nM,> 10000 nM,> 10000 nM,,,> 10000 nM,> 10000 nM
Cc1nsc(-c2cc(O)c(-c3ccc(N4CC[C@@H](NCC5CC5)C4)nn3)cc2F)n1 [Compound 431],,,,,,,100 to 1000 nM,< 100 nM,100 to 1000 nM,100 to 1000 nM,100 to 1000 nM,100 to 1000 nM,,,100 to 1000 nM,100 to 1000 nM
Cc1nsc(-c2cc(O)c(-c3ccc(N4CC[C@H](NCC5CC5)C4)nn3)cc2F)n1 [Compound 432],,,,,,,100 to 1000 nM,< 100 nM,1000 to 10000 nM,1000 to 10000 nM,< 100 nM,< 100 nM,,,100 to 1000 nM,100 to 1000 nM
CCOc1cc(-c2ccc(-c3ccc(N4CCC(NCC5CC5)C4)nn3)c(O)c2)ncn1 (stereo not drawn) [Compound 433],,,,,,,> 10000 nM,> 10000 nM,> 10000 nM,> 10000 nM,> 10000 nM,> 10000 nM,,,> 10000 nM,> 10000 nM
CNc1cc(-c2ccc(-c3ccc(N4CCC(NCC5CC5)C4)nn3)c(O)c2)ncn1 (stereo not drawn) [Compound 434],,,,,,,100 to 1000 nM,< 100 nM,100 to 1000 nM,100 to 1000 nM,< 100 nM,< 100 nM,,,100 to 1000 nM,< 100 nM
Cc1ncc(-c2cc(O)c(-c3cnc(OC4CC(C)(C)NC(C)(C)C4)nn3)cc2F)s1 [Compound 435],,,,,,,100 to 1000 nM,< 100 nM,1000 to 10000 nM,1000 to 10000 nM,100 to 1000 nM,100 to 1000 nM,,,1000 to 10000 nM,100 to 1000 nM
"CNc1cc(-c2ccc(-c3ccc(N4CC[C@@H](NC(C)(C)C)C4)nn3)c(O)c2)ncn1 [Compound 437, 2-{6-[(3R)-3-(tert-butylamino)pyrrolidin-1-yl]pyridazin-3-yl}-5-[6-(methylamino)pyrimidin-4-yl]phenol]",,,,,,,< 100 nM,< 100 nM,< 100 nM,< 100 nM,< 100 nM,< 100 nM,,,< 100 nM,< 100 nM

# Second part, led by results:
IC50 (Target C mRNA),IC50 (SMN2 mRNA),"IC50 (MYB mRNA; Table 3A, A673 or K562 cells, 24 h treatment, read-out: MYB CJ (IC50, decrease in CJ mRNA))","IC50 (MYB mRNA; canonical junction (CJ) mRNA, RT-qPCR panel, Table 4A, read-out: MYB, decrease in CJ mRNA levels, IC50)","IC50 (HTT mRNA; Table 3A, A673 or K562 cells, 24 h treatment, read-out: HTT CJ (IC50, decrease in CJ mRNA))","IC50 (HTT mRNA; canonical junction (CJ) mRNA, RT-qPCR panel, Table 4A, read-out: HTT, decrease in CJ mRNA levels, IC50)",IC50 (Target C mRNA; Homo sapiens),IC50 (SMN2 mRNA; Homo sapiens),IC50 (MYB mRNA; [3]),IC50 (MYB mRNA; [4]),IC50 (HTT mRNA; [5]),IC50 (HTT mRNA; [6]),Compound,AC50 (MYB mRNA; [1]),AC50 (HTT mRNA; [1]),AC50 (MYB mRNA; [2]),AC50 (HTT mRNA; [2])
> 10000 nM,1000 to 10000 nM,1000 to 10000 nM,1000 to 10000 nM,1000 to 10000 nM,1000 to 10000 nM,,,,,,,Cc1nc(-c2ccc(-c3ccc(N4CCC(NC5CCC5)C4)nn3)c(O)c2)cs1 (stereo not drawn) [Compound 413],1000 to 10000 nM,1000 to 10000 nM,,
,,,,,,100 to 1000 nM,< 100 nM,100 to 1000 nM,100 to 1000 nM,< 100 nM,< 100 nM,Cc1nnc(-c2ccc(-c3ccc(N4CC[C@@H](NCC5CC5)C4)nn3)c(O)c2)s1 [Compound 415],,,100 to 1000 nM,< 100 nM
,,,,,,< 100 nM,< 100 nM,< 100 nM,< 100 nM,< 100 nM,< 100 nM,Cc1ncc(-c2cc(O)c(-c3ccc(N4CC[C@@H](N[C@H](C)C5CC5)C4)nn3)cc2F)s1 [Compound 418],,,< 100 nM,< 100 nM
,,,,,,1000 to 10000 nM,100 to 1000 nM,1000 to 10000 nM,1000 to 10000 nM,100 to 1000 nM,100 to 1000 nM,"Oc1cc(-c2ccc(-c3ccc(N4CC[C@@H](NC5CCC5)C4)nn3)c(O)c2)cnn1 [Compound 419, 5-(4-{6-[(3R)-3-(cyclobutylamino)pyrrolidin-1-yl]pyridazin-3-yl}-3-hydroxyphenyl)pyridazin-3-ol]",,,> 10000 nM,1000 to 10000 nM
,,,,,,> 10000 nM,100 to 1000 nM,> 10000 nM,> 10000 nM,1000 to 10000 nM,1000 to 10000 nM,CC1(C)CC(Oc2nnc(-c3ccc(-c4cn[nH]c4)cc3O)cc2C#N)CC(C)(C)N1 [Compound 423],,,> 10000 nM,1000 to 10000 nM
,,,,,,1000 to 10000 nM,100 to 1000 nM,1000 to 10000 nM,1000 to 10000 nM,100 to 1000 nM,100 to 1000 nM,COc1cc(-c2ccc(-c3ccc(N4CC[C@H](N[C@H]5C[C@H](F)C5)C4)nn3)c(O)c2)ncn1 [Compound 426],,,1000 to 10000 nM,100 to 1000 nM
,,,,,,1000 to 10000 nM,100 to 1000 nM,1000 to 10000 nM,1000 to 10000 nM,100 to 1000 nM,100 to 1000 nM,COc1cc(-c2ccc(-c3ccc(N4CC[C@@H](N[C@H]5C[C@H](F)C5)C4)nn3)c(O)c2)ncn1 [Compound 427],,,1000 to 10000 nM,100 to 1000 nM
,,,,,,< 100 nM,< 100 nM,100 to 1000 nM,100 to 1000 nM,< 100 nM,< 100 nM,"CNc1cc(-c2ccc(-c3ccc(N4CC[C@H](NC(C)(C)C)C4)nn3)c(O)c2)ncn1 [Compound 436, 2-{6-[(3S)-3-(tert-butylamino)pyrrolidin-1-yl]pyridazin-3-yl}-5-[6-(methylamino)pyrimidin-4-yl]phenol]",,,100 to 1000 nM,< 100 nM
